# Test results: US20110250184A1, “METHODS FOR DETERMINING EFFICACY OF A THERAPEUTIC REGIMEN AGAINST DELETERIOUS EFFECTS OF CYTOTOXIC AGENTS IN HUMAN” (priority 2008, published 2011)
# Entries after “also recorded” stand apart in the source; their conditions may differ.
# Legend:
# DNA damage = test: Comet assay, DNA damage caused by irradiation of cells; type: cell-based
# [1] = tested on: apoptosis-specific signaling events; test: Signaling studies, apoptosis-specific signaling after radiation; type: cell-based; conditions: treatment prior to radiation exposure
# Excerpt: To analyze and investigate the efficacy of a cytotoxic protective drug, biological assays were developed that assisted in determination of the mechanism of action of these drugs at the intracellular level. In the case of ON 01210.Na, certain components of cellular and DNA damage-sensing, repair, and apoptosis pathways were studied in more detail.
# [2] = tested on: bone marrow of irradiated mice; test: In vivo radiation protection assay, bone marrow colony forming units of irradiated mice; parameters: species or system C3H/HEJ mice; conditions: for Differential colony counts, GM / Differential colony counts, Granulocytes / Differential colony counts, Macrophages / Differential colony counts, Total CFU: 500 mg/kg sc -24 h and -15 min
# Method: (§1) FIG. 4. ON 01210.Na protects the bone marrow of irradiated mice. A. Mice were injected with 500 mg/kg of ON 01210.Na formulated in 1% Polysorbate 80/K-phosphate buffer or vehicle alone by sc injections minus 24 hrs and minus 15 minutes before 5.5 Gy of whole body ionizing radiation treatment. Whole blood was collected on the indicted days and WBC counts were performed following RBC lysis. The data is plotted as the average of three mice per group +/−SEM (N:3×3=9 plates). B. Pictures of representative plates. […] C. White blood cell counts. Whole blood was collected on the indicted days and WBC counts were performed following RBC lysis. The data is plotted as the average of 3 mice per group±SEM (N=3).
# Since survival of animals after radiation exposure depends largely on the protection of the hematopoietic system, the effect of ON 01210.Na treatment on hematopoietic cell survival was investigated using various schedules before radiation exposure. The radioprotection of hematopoietic cells by ON 01210.Na was studied in an in vivo assay using a sub lethal dose of radiation. C3H/HEJ mice were treated with ON 01210.Na following various schedules in order to determine the optimal dose and schedule of ON 01210.Na for maximum protection of the hematopoietic system in mice.
# as §1, with “A.” for “FIG. 4. ON 01210.Na protects the bone marrow of irradiated mice. A.”, “group+/−SEM” for “group +/−SEM”, “(N=3). Lineage specific protection was studied by identifying and tabulating three lineages, granulocytes, macrophages and granulocyte-macrophages (GM).” for “(N=3).”
# In order to determine the optimal schedule of ON 01210.Na treatment for maximum protection of the bone marrow, bone marrow protection of mice injected with a single dose of ON 01210.Na at minus 15 minutes or minus 4 hours was compared with mice injected with two doses described above. The most efficient protection of the bone marrow was found when the mice were injected at minus 24 hours and minus 15 minutes before radiation exposure. […] These experiments imply that a single injection just before exposure will protect and increase the recovery of bone marrow cells after radiation exposure.
# human bone marrow cells [3] = test: In vitro radiation protection of human bone marrow cells (methocult CFU); type: cell-based; conditions: 3 hour treatment, no radiation, all concentrations tested; sodium salt
# [4] = tested on: human umbilical vein endothelial cells; test: In vitro clonogenic survival assay, endothelial cells; type: cell-based
# [5] = tested on: p53, p21, bax, c-abl and p73; test: Protein levels in cells in response to radiation exposure; type: cell-based
# Excerpt: This reduction could be instrumental in decreased cell death and increased cell recovery in ON 01210.Na pretreated irradiated cells.
# jejunal crypt stem cells = test: Gastrointestinal tissue damage in irradiated mice; type: in vivo; conditions: pretreated prior to irradiation
# human bone marrow cells [6] = test: Cytotoxicity to human bone marrow cells (methocult, total colony forming units); type: cell-based; conditions: 2 and 24 hours treatment, up to 20 μM; sodium salt
# Method: FIG. 2. ON 01210.Na is not cytotoxic to human bone marrow cells in vitro. Human bone marrow cells were treated with various concentrations of ON 01210.Na for (A) 2 hrs or (B) 24 hrs. The cells were then plated into methocult medium. Total colony forming units were determined 14 days later.
# The ability of ON 01210.Na to protect primary human bone marrow cells from cytotoxic doses of radiation was studied in an in vitro assay. Initially, cytotoxicity studies were performed. Human bone marrow cells isolated from healthy volunteers were treated with increasing concentrations of ON 01210.Na for 2 and 24 hours and plated into methocult.
# FIG. 2. ON 01210.Na was not cytotoxic to human bone marrow cells in vitro. Human bone marrow cells were treated with various concentrations of ON 01210.Na for (A) 2 hrs or (B) 24 hrs. The cells were then plated into methocult medium. Total colony forming units were determined 14 days later.
# [7] = tested on: white blood cells, platelets, hematocrit and hemoglobin levels; test: Hematology in irradiated rabbits; type: in vivo, New Zealand white rabbits
# Method: Unlike in the mouse studies, clear evidence of improved repopulation of various hematologic cell lineages was not evident in these preliminary studies. Both solution and suspension formulations were tested.
smiles,measurement,setting,value
"O=C([O-])c1ccc(/C=C/S(=O)(=O)Cc2ccc(Cl)cc2)cc1.[Na+] [ON 01210.Na, E-4-Carboxystyryl-4-chlorobenzylsulfone sodium salt]",DNA damage caused by irradiation (Comet assays),DNA damage,reduced the amount of DNA damage
same,level of apoptosis-specific signaling events,[1],reduced the level of apoptosis-specific signaling events
same,"Differential colony counts, GM","[2]; 5.5 Gy IR, day 4",8
same,"Differential colony counts, Granulocytes","[2]; 5.5 Gy IR, day 4",9
same,"Differential colony counts, Macrophages","[2]; 5.5 Gy IR, day 4",4
same,"Differential colony counts, Total CFU","[2]; 5.5 Gy IR, day 4",21
same,"Differential colony counts, GM","[2]; 5.5 Gy IR, day 7",9
same,"Differential colony counts, Granulocytes","[2]; 5.5 Gy IR, day 7",13
same,"Differential colony counts, Macrophages","[2]; 5.5 Gy IR, day 7",2
same,"Differential colony counts, Total CFU","[2]; 5.5 Gy IR, day 7",24
same,"Differential colony counts, GM","[2]; 5.5 Gy IR, day 12",16
same,"Differential colony counts, Granulocytes","[2]; 5.5 Gy IR, day 12",16
same,"Differential colony counts, Macrophages","[2]; 5.5 Gy IR, day 12",5
same,"Differential colony counts, Total CFU","[2]; 5.5 Gy IR, day 12",37
same,"Differential colony counts, GM","[2]; 5.5 Gy IR, day 18",72
same,"Differential colony counts, Granulocytes","[2]; 5.5 Gy IR, day 18",58
same,"Differential colony counts, Macrophages","[2]; 5.5 Gy IR, day 18",16
same,"Differential colony counts, Total CFU","[2]; 5.5 Gy IR, day 18",146
same,"Differential colony counts, GM","[2]; No IR, day 4",111
same,"Differential colony counts, Granulocytes","[2]; No IR, day 4",27
same,"Differential colony counts, Macrophages","[2]; No IR, day 4",9
same,"Differential colony counts, Total CFU","[2]; No IR, day 4",147
same,"Differential colony counts, GM","[2]; No IR, day 7",120
same,"Differential colony counts, Granulocytes","[2]; No IR, day 7",18
same,"Differential colony counts, Macrophages","[2]; No IR, day 7",5
same,"Differential colony counts, Total CFU","[2]; No IR, day 7",143
same,"Differential colony counts, GM","[2]; No IR, day 12",116
same,"Differential colony counts, Granulocytes","[2]; No IR, day 12",64
same,"Differential colony counts, Macrophages","[2]; No IR, day 12",14
same,"Differential colony counts, Total CFU","[2]; No IR, day 12",194
same,"Differential colony counts, GM","[2]; No IR, day 18",119
same,"Differential colony counts, Granulocytes","[2]; No IR, day 18",39
same,"Differential colony counts, Macrophages","[2]; No IR, day 18",39
same,"Differential colony counts, Total CFU","[2]; No IR, day 18",197
same,protection and recovery of the bone marrow,"[2]; 500 mg/kg sc -24 h and -15 min before 5.5 Gy whole body IR, sodium salt",significantly increased the recovery of the bone marrow; also recorded: significantly protected
same,Percent Colony Forming Units,"[2]; administration -15 min relative to IR exposure, day 4",9%
same,Percent Colony Forming Units,"[2]; administration -15 min relative to IR exposure, day 7",13%
same,Percent Colony Forming Units,"[2]; administration -15 min relative to IR exposure, day 12",17%
same,Percent Colony Forming Units,"[2]; administration -15 min relative to IR exposure, day 18",80%
same,Percent Colony Forming Units,"[2]; administration -4 h relative to IR exposure, day 4",6%
same,Percent Colony Forming Units,"[2]; administration -4 h relative to IR exposure, day 7",10%
same,Percent Colony Forming Units,"[2]; administration -4 h relative to IR exposure, day 12",12%
same,Percent Colony Forming Units,"[2]; administration -4 h relative to IR exposure, day 18",51%
same,Percent Colony Forming Units,"[2]; administration -24 h and -15 min relative to IR exposure, day 4",14%
same,Percent Colony Forming Units,"[2]; administration -24 h and -15 min relative to IR exposure, day 7",16%
same,Percent Colony Forming Units,"[2]; administration -24 h and -15 min relative to IR exposure, day 12",25%
same,Percent Colony Forming Units,"[2]; administration -24 h and -15 min relative to IR exposure, day 18",100%
same,macrophage colony number,[2]; mice injected without radiation exposure,slight increase
same,recovery of bone marrow versus vehicle,"[2]; single injection 4 hours prior to radiation exposure, sodium salt",did not show a significant advantage; also recorded: not significantly increased
same,toxicity of treatment without radiation,human bone marrow cells [3],non-toxic at all concentrations tested; also recorded: completely safe
same,protection from radiation exposure (clonogenic survival),[4],protected
same,protein level of bax,[5],significantly reduce
same,protein level of c-abl,[5],significantly reduce
same,protein level of p21,[5],significantly reduce
same,protein level of p53,[5],significantly reduce
same,protein level of p73,[5],significantly reduce
same,damage to the jejunal crypt stem cells,jejunal crypt stem cells,significantly less damage
same,cytotoxicity to human bone marrow cells (total colony forming units),human bone marrow cells [6],non cytotoxic; also recorded: not cytotoxic; also recorded: nontoxic
same,"white blood cells, platelets, hematocrit and hemoglobin levels",[7]; 120 mg/kg at 24 hours and 15 minutes before lethal radiation,general protective trend
same,improved repopulation of hematologic cell lineages,[7]; preliminary studies,not evident
